# Measurements from paper PMC8097418, “In Vitro and In Vivo Antibacterial Activities of a Novel Quinolone Compound, OPS-2071, against Clostridioides difficile” (Antimicrobial Agents and Chemotherapy, 2021).
# Read-outs that look alike come from different tables or passages of the source.
# Assays:
# [1] = tested on: 54 clinically isolated C. difficile strains; experiment: MIC by agar dilution against 54 clinically isolated strains; type: cell-based, Clostridioides difficile
# Experimental: (§1) MICs obtained using the agar dilution method were determined visually as described for the CLSI method ([41], [42]). MICs obtained using the broth dilution method were determined visually based on the CLSI method except for using Gifu anaerobic medium (GAM) broth instead of supplemented Brucella broth ([41], [42]).
# [2] = tested on: C. difficile ATCC 700057; experiment: MIC by agar dilution (CLSI) against quality control strain; type: cell-based, Clostridioides difficile; conditions: Clostridioides difficile, read-out: MIC
# Experimental: as §1
# [3] = tested on: C. difficile ATCC 700057; type: cell-based, Clostridioides difficile
# [4] = tested on: C. difficile ATCC 700057; experiment: Mutant prevention concentration; type: cell-based, Clostridioides difficile
# Experimental: The mutant prevention concentration was measured by plating approximately 10^10 CFU of C. difficile ATCC 700057 onto a GAM agar plate containing the test agent. Inoculated plates were incubated for 3 days, and the MIC for each antibiotic that prevented the growth of colonies was determined using the agar dilution method as described by the CLSI ([41]). The MIC values of grown colonies were compared to determine which bacteria were resistant. The MPC was defined as the lowest concentration that prevented the growth of resistant bacteria.
# [5] = tested on: C. difficile ATCC 700057; experiment: Postantibiotic effect (PAE); type: cell-based, Clostridioides difficile; conditions: for Postantibiotic effect: 1 h exposure
# Experimental: C. difficile ATCC 700057 was cultured in GAM agar and adjusted in GAM broth to approximately 10^6 CFU/ml. The bacterial suspensions were preincubated at 37°C for 1 h. […] After preincubation, test and reference solutions were added to each bacterial suspension in a test tube, and the suspensions were cultured for 1 h. After exposure to the test compounds, bacterial suspensions were washed with GAM broth and cultured for 6 h. […] The PAE was defined according to Craig and Gudmundsson as PAE = T − C, where T is the time required for the viable counts of the exposed bacteria to increase by 1 log10 above the counts observed immediately after washing, and C is the corresponding time for the antibiotic unexposed controls ([44]).
# [6] = Pharmacokinetics in the hamster (cecal contents); type: in vivo, male Syrian hamsters; conditions: male, Syrian, 2 mg/kg oral
# Experimental: OPS-2071 was orally administered at 2 mg/kg to male Syrian hamsters, and the cecal contents were collected 0.5, 1, 2, 4, 8, 24, 48, and 72 h postdose (n = 5 for each time point). After homogenizing with saline and treatment using acetonitrile-formic acid (100:1 [vol/vol]), the OPS-2071 concentration in cecal contents was determined using a validated liquid chromatography-electrospray ionization-tandem mass spectrometry (LC-ESI-MS/MS) method. The mass spectrometer 4000 QTRAP (AB Sciex Pte. Ltd.) and high-performance liquid chromatography Prominence UFLC system (Shimadzu Corp.) were used. The pharmacokinetic (PK) parameters (Cmax) were determined with WinNonlin professional software version 6.3, (Pharsight Corp.).
# [7] = Pharmacokinetics in the rat (plasma, oral and intravenous); type: in vivo, male SD rats
# Experimental: OPS-2071 was orally or intravenously administered at 1 mg/kg to male SD rats, and plasma was collected 0.5, 1, 2, 4, 6, 8, 12, 24, 48, and 72 h postdose (oral, n = 3 for each time point) or 0.083, 0.25, 0.5, 1, 2, 4, 6, 8, 12, 24, 48, and 72 h postdose (intravenous, n = 3 for each time point). After solid-phase extraction, the OPS-2071 concentration in plasma was determined by a validated LC-ESI-MS/MS method, and bioavailability was calculated. The mass spectrometer QTRAP 5500 (AB Sciex Pte. Ltd.) and high-performance liquid chromatography Prominence UFLCXR system (Shimadzu Corp.) were used. The PK parameters (AUCt) were determined with the same WinNonlin professional software, and the bioavailability was calculated from AUCt,oral and AUCt,intravenous.
# [8] = tested on: C. difficile ATCC 43255; experiment: In vivo hamster model of C. difficile infection; parameters: species or system golden Syrian hamsters
# Experimental: C. difficile ATCC 43255 was cultured on GAM agar, and a bacterial suspension was prepared in saline ([26]). […] Hamsters were infected using oral gavage with 0.5 ml of suspension containing approximately 10^6 CFU of C. difficile (day −1). The next day, the animals were administered clindamycin phosphate (0.2 mg/ml in water) by oral gavage at a dose of 5 ml/kg of body weight, for a final dose of 1 mg/kg (day 0). The animals were allocated to the test groups using a stratified randomization method based on the body weight of each infected animal. The test compounds were administered by oral gavage once daily for 5 days (OPS-2071, 0.008 to 1 mg/kg; fidaxomicin, 0.04 mg/kg to 5 mg/kg; vancomycin, 0.04 to 5 mg/kg [5-fold dilution]). Infected control animals were administered 5% (wt/vol) gum arabic solution by oral gavage. […] The cecal contents of dead animals were tested for toxin A and toxin B using C.Diff Quik Chek Complete (Abbott Diagnostics Medical Co., Ltd., Tokyo, Japan) to confirm that the death of the animal was due to CDI.
# The statistical significance of OPS-2071, fidaxomicin, and vancomycin treatment was analyzed at all doses against vehicle. Survival curves were estimated for each group using the Kaplan-Meier method. Differences in survival homogeneity in each group were evaluated with a log-rank test with Dunnett-type (two-sided) comparison.
# [9] = tested on: C. difficile ATCC 43255; experiment: MIC against the infection strain; type: cell-based, Clostridioides difficile
# [10] = tested on: C. difficile ATCC 700057; experiment: Effect of pH on MIC (agar dilution); type: cell-based, Clostridioides difficile; conditions: for MIC: Clostridioides difficile
# [11] = in vitro; conditions: mouse
compound,measurement,setting,value
"Cc1c(-c2cnc(N)c(C#N)c2)c(F)cc2c(=O)c(C(=O)O)cn(C3CC3)c12 [OPS-2071, 7-(6-amino-5-cyanopyridin-3-yl)-1-cyclopropyl-6-fluoro-8-methyl-4-oxo-1,4-dihydroquinoline-3-carboxylic acid]",MIC50 fold higher than that of fidaxomicin,[1]; 54 clinical isolates,2 fold
same,MIC50 fold lower than those of vancomycin and metronidazole,[1]; 54 clinical isolates,16 fold
same,MIC90 fold lower than that of fidaxomicin,[1]; 54 clinical isolates,16 fold
same,MIC90 fold lower than those of vancomycin and metronidazole,[1]; 54 clinical isolates,8 fold
same,MIC range,[1]; 54 clinically isolated C. difficile strains,0.016 to 1 µg/mL
same,MIC50,[1]; Clostridioides difficile,0.125 µg/mL
same,MIC90,"[1]; Clostridioides difficile, 54 clinically isolated C. difficile strains",0.5 µg/mL
same,MIC,"[2]; ATCC700057, agar dilution, determined for the spontaneous resistance assay",0.03 µg/mL
same,MIC,"[2]; ATCC700057, quality control strain ATCC 700057, CLSI method",0.031 µg/mL
same,Frequency of spontaneous resistance,[3]; 4× MIC,<9.17 × 10^–9
same,Frequency of spontaneous resistance,[3]; 16× MIC,<9.17 × 10^–9
same,Frequency of spontaneous resistance,[3]; 64× MIC,<9.17 × 10^–9
same,MPC fold lower than those of fidaxomicin and vancomycin,[4],16 fold
same,mutant prevention concentration (MPC),"[4]; approximately 10^10 CFU, 3 days",0.5 µg/mL
same,PAEs at 4- and 8-fold the MIC,[5]; 4- and 8-fold the MIC,3.93 to 4.04 h
same,Postantibiotic effect,[5]; 4× MIC,3.93 h
same,Postantibiotic effect,[5]; 8× MIC,4.04 h
same,concentration at 24 h,"[6]; 24 h, read-out: concentration in the cecal contents at 24 h postdose",1840 ng/g
same,Cmax,"[6]; reached at 4 h postdose, read-out: maximum concentration (Cmax) in the cecal contents",43000 ng/g
same,plasma concentrations at 48 and 72 h after administration,[7]; 1 mg/kg oral or intravenous,< 0.5 ng/mL
same,bioavailability,"[7]; male, SD, rat, plasma, 1 mg/kg, from AUCt oral and intravenous",2.9%
same,AUC(0-t),"[7]; male, SD, rat, intravenous, 1 mg/kg, plasma",672 ng·h/mL
same,AUC(0-t),"[7]; male, SD, rat, oral, 1 mg/kg, plasma",19.5 ng·h/mL
same,ED50 fold lower than that of fidaxomicin,"[8]; hamster, in vivo",52.1 fold
same,ED50 fold lower than that of vancomycin,"[8]; hamster, in vivo",39.0 fold
same,50% effective dose (ED50),"[8]; survival on day 20, oral once daily for 5 days, probit method",0.0313 mg/kg/day
same,dosages with significant efficacy compared with vehicle control,"[8]; survival, log-rank test",≥ 0.04 mg/kg
same,MIC,[9],0.016 µg/mL
same,MIC,"[10]; ATCC700057, pH 6",0.016 µg/mL
same,MIC,"[10]; ATCC700057, pH 7",0.016 µg/mL
same,MIC,"[10]; ATCC700057, pH 8",0.03 µg/mL
same,influence of pH on MICs,[10]; pH 6 to 8,not influenced by pH
same,IC50 at 110 min,[11],> 100 µg/mL
